# Results: patent publication US20260274833A1 (NiKang Therapeutics, Inc., priority 2022, published 2026)
# Molecular target: T1, CDK2 (Homo sapiens, UniProt P24941)
# T1 construct: endogenous in cells; host or cells: OVCAR3 cells
# Test: Phospho-RB measurement in OVCAR3 cells (HTRF phospho-RB cellular kit)
# Format: cell-based
# Conditions: inhibition of RB phosphorylation at S807/811 (HTRF, TR-FRET ratio 665/620), 24 h compound treatment, 0.3 to 10,000 nM
# Summary of the method: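 IC50 came from a four-parameter logistic fit of the DMSO-normalized TR-FRET ratio (665/620 nm). That ratio reflects RB phosphorylation at S807/811, read with an HTRF antibody pair 4 h after adding lysate at room temperature.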
row,IC50 [µM],Compound
1,0.397,"CN(C)C(=O)c1ccc2c(c1)N(S(=O)(=O)Nc1cccc(-c3nc(C(C)(C)C)sc3-c3ccnc(NC4CCN(S(C)(=O)=O)CC4)n3)c1F)CC2 [Example 152, 1-(N-(3-(2-(tert-butyl)-5-(2-((1-(methyl-sulfonyl)piperidin-4-yl)amino)pyrimidin-4-yl)thiazol-4-yl)-2-fluorophenyl)-sulfamoyl)-N,N-dimethylindoline-6-carboxamide]"
2,0.152,"CC(C)(C)c1nc(-c2cccc(NS(=O)(=O)N3Cc4ccncc4C3)c2F)c(-c2ccnc(N[C@H]3[C@@H]4CS(=O)(=O)C[C@@H]43)n2)s1 [Example 222, N-(3-(2-(tert-butyl)-5-(2-(((1R,5S,6r)-3,3-dioxido-3-thiabicyclo[3.1.0]hexan-6-yl)amino)pyrimidin-4-yl)thiazol-4-yl)-2-fluorophenyl)-1,3-dihydro-2H-pyrrolo[3,4-c]-pyridine-2-sulfonamide]"
3,0.694,"CC(C)(C)c1nc(-c2cccc(NS(=O)(=O)N3CCc4ccc(S(C)(=O)=O)cc43)c2F)c(-c2ccnc(NC3CC4(C3)CS(=O)(=O)C4)n2)s1 [Example 261, N-(3-(2-(tert-butyl)-5-(2-((2,2-dioxido-2-thiaspiro[3.3]heptan-6-yl)amino)-pyrimidin-4-yl)thiazol-4-yl)-2-fluoro-phenyl)-6-(methylsulfonyl)-indoline-1-sulfonamide]"
